Measurements published in US8877741B2, “Pyrrolidine derivatives, pharmaceutical compositions and uses thereof” (Boehringer Ingelheim International GmbH, priority 2013, dated 2014).
pIC50: −log10 of the molar value.

Molecular target: human ACC2 (Homo sapiens (Human), UniProt O00763)
Assay: ACC2 assay, spectrophotometric 384 well assay (NADH-linked kinetic method)
Type: biochemical
Conditions: human ACC2 construct lacking the 128 N-terminal amino acids; coupled lactate dehydrogenase/pyruvate kinase reaction, 340 nm, 25° C.
Outline: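 N-terminally truncated human ACC2 (lacking 128 residues), expressed in insect cells, was coupled to pyruvate kinase/lactate dehydrogenase, with NADH and acetyl-CoA at 2000 μM and ATP at 500 μM final. The OD340 decrease was followed over 15 min at 25 °C. Slopes were normalised to vehicle and no-acetyl-CoA controls, and IC50 came from four-parameter regression.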

Chain of human ACC2 (O00763 129-2458): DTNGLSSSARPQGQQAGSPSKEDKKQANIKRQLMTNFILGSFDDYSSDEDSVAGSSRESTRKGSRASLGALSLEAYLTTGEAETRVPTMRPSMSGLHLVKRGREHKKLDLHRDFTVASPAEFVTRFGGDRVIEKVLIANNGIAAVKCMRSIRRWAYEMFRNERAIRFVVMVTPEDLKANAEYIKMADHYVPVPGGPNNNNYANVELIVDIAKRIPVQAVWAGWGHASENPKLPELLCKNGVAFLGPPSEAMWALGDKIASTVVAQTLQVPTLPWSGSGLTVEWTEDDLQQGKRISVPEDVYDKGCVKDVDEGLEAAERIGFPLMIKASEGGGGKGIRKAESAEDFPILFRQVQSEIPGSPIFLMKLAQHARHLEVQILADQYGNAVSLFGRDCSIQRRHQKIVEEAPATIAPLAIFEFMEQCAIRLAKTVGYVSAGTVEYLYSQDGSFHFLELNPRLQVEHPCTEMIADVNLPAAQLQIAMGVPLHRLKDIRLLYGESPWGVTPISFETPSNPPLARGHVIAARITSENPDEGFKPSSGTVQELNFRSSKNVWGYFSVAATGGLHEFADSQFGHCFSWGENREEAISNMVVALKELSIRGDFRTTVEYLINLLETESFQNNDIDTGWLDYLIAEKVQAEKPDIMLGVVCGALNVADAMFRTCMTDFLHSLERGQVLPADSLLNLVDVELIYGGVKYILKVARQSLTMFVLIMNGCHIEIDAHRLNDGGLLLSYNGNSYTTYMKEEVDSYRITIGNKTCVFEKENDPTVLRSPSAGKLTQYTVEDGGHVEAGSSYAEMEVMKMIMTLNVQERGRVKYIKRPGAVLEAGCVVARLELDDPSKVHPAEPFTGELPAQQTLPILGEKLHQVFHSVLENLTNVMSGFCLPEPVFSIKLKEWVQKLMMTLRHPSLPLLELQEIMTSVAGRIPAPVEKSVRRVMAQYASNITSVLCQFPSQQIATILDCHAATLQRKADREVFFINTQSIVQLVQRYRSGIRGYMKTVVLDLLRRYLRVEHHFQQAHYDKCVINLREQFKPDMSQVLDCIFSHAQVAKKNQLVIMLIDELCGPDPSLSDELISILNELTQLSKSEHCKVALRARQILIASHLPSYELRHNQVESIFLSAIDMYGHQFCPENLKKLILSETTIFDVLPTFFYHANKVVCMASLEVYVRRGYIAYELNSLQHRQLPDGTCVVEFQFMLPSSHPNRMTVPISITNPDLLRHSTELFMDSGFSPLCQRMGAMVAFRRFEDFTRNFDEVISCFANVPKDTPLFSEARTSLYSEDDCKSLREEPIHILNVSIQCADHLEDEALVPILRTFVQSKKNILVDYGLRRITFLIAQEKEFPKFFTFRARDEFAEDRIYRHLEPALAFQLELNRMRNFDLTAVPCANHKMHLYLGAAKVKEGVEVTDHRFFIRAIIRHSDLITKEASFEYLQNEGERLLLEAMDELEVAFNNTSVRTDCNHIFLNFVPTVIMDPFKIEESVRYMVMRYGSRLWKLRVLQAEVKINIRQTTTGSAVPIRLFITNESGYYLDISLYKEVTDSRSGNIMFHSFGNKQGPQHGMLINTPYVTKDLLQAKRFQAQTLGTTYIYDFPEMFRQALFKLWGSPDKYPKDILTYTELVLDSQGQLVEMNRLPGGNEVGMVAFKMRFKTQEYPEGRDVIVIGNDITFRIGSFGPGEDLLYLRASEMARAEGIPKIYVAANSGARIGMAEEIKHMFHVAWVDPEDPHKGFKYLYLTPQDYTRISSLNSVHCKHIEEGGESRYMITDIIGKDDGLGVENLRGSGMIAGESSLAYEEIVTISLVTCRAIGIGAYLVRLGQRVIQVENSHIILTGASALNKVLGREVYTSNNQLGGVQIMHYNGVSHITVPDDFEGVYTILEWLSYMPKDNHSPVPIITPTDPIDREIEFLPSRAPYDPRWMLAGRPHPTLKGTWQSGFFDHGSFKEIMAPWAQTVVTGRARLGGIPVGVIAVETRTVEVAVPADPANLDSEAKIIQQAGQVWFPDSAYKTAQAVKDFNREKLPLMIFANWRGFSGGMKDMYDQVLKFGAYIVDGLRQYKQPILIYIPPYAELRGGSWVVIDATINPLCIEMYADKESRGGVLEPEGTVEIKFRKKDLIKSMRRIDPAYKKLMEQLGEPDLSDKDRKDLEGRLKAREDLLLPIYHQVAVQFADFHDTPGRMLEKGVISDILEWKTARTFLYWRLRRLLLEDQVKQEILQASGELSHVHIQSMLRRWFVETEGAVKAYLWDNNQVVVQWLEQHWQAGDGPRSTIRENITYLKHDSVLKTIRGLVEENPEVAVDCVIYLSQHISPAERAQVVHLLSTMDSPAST

SMILES	pIC50
CC(=O)N[C@@H](C)c1ccc(O[C@@H]2CCN(c3ccnc(OC4Cc5ccccc5C4)c3)C2)cc1 [Example 9.13]	6.64
CC(=O)N[C@@H](C)c1ccc(O[C@@H]2CCN(c3ccnc(OCCC4CC4)c3)C2)cc1 [Example 9.14]	7.12
CC(=O)N[C@@H](C)c1ccc(O[C@@H]2CCN(c3ccnc(OCC4CCC4)c3)C2)cc1 [Example 9.15]	7.40
CC(=O)N[C@@H](C)c1ccc(O[C@@H]2CCN(c3ccnc(OCC4(C)CC4)c3)C2)cc1 [Example 9.16]	7.46
C=C(C)COc1cc(N2CC[C@@H](Oc3ccc([C@H](C)NC(C)=O)cc3)C2)ccn1 [Example 9.17]	7.11
COCCOc1cc(N2CC[C@@H](Oc3ccc([C@H](C)NC(C)=O)cc3)C2)ccn1 [Example 9.18]	6.32
CC(=O)N[C@@H](C)c1ccc(O[C@@H]2CCN(c3ccnc(OC(C)c4ccccc4)c3)C2)cc1 (some centres unmarked) [Example 9.19]	6.48
CCC(CC)Oc1cc(N2CC[C@@H](Oc3ccc([C@H](C)NC(C)=O)cc3)C2)ccn1 [Example 9.20]	7.15
CC(=O)N[C@@H](C)c1ccc(O[C@@H]2CCN(c3ccnc(OCc4cccc(F)c4)c3)C2)cc1 [Example 9.21]	6.32
CC(=O)N[C@@H](C)c1ccc(O[C@@H]2CCN(c3ccnc(OC4CCOCC4)c3)C2)cc1 [Example 9.22]	6.85
CC(=O)N[C@@H](C)c1ccc(O[C@@H]2CCN(c3ccnc(OCC4CC4C)c3)C2)cc1 (some centres unmarked) [Example 9.23]	7.35
CC(=O)N[C@@H](C)c1ccc(O[C@@H]2CCN(c3ccnc(OCC4CC4C#N)c3)C2)cc1 (some centres unmarked) [Example 9.24]	7.26
CC(=O)N[C@@H](C)c1ccc(O[C@@H]2CCN(c3ccnc(O[C@H]4CCOC4)c3)C2)cc1 [Example 9.25]	6.24
CC(=O)N[C@@H](C)c1ccc(O[C@@H]2CCN(c3ccnc(OCC4CCOC4)c3)C2)cc1 (some centres unmarked) [Example 9.26]	6.90
CC[C@H](C)Oc1cc(N2CC[C@@H](Oc3ccc([C@H](C)NC(C)=O)cc3)C2)ccn1 [Example 9.27]	7.26
CC(=O)N[C@@H](C)c1ccc(O[C@@H]2CCN(c3ccnc(OC4CCCC4)c3)C2)cc1 [Example 9.28]	7.40
CC(=O)N[C@@H](C)c1ccc(O[C@@H]2CCN(c3ccnc(OCC(C)(C)C)c3)C2)cc1 [Example 9.29]	7.52
CC(=O)N[C@@H](C)c1ccc(O[C@@H]2CCN(c3ccnc(OCc4cccnc4)c3)C2)cc1 [Example 9.30]	6.40
CC(=O)N[C@@H](C)c1ccc(O[C@@H]2CCN(c3ccnc(OCC(F)F)c3)C2)cc1 [Example 9.31]	7.05
CC(=O)N[C@@H](C)c1ccc(O[C@@H]2CCN(c3ccnc(OCC(C)(C)O)c3)C2)cc1 [Example 9.32]	6.52
CC(=O)N[C@@H](C)c1ccc(O[C@@H]2CCN(c3ccnc(OCc4ccccn4)c3)C2)cc1 [Example 9.33]	6.27
CC(=O)N[C@@H](C)c1ccc(O[C@@H]2CCN(c3ccnc(OCCC(C)C)c3)C2)cc1 [Example 9.34]	7.02
CC(=O)N[C@@H](C)c1ccc(O[C@@H]2CCN(c3ccnc(OCc4ccncc4)c3)C2)cc1 [Example 9.35]	6.23
CC(C)COc1cc(N2CC[C@@H](Oc3ccc([C@H](C)NC(=O)C4CC4)cc3)C2)ccn1 [Example 9.36]	6.68
CCCOc1cc(N2CC[C@@H](Oc3ccc([C@H](C)NC(=O)C4CC4)cc3)C2)ccn1 [Example 9.37]	6.41
CCOc1cc(N2CC[C@@H](Oc3ccc([C@H](C)NC(=O)C4CC4)cc3)C2)ccn1 [Example 9.38]	6.29
C[C@H](NC(=O)C1CC1)c1ccc(O[C@@H]2CCN(c3ccnc(OCC4CC4)c3)C2)cc1 [Example 9.39]	6.83

SMILES	pIC50
C[C@H](NC(=O)C1CC1)c1ccc(O[C@@H]2CCN(c3ccnc(OCC4CC4(F)F)c3)C2)cc1 (some centres unmarked) [Example 9.40]	6.49
C[C@H](NC(=O)C1CC1)c1ccc(O[C@@H]2CCN(c3ccnc(OC4CCC4)c3)C2)cc1 [Example 9.41]	7.02
C[C@H](NC(=O)C1CC1)c1ccc(O[C@@H]2CCN(c3ccnc(OCC(F)F)c3)C2)cc1 [Example 9.42]	6.40
C[C@H](NC(=O)C1CC1)c1ccc(O[C@@H]2CCN(c3ccnc(O[C@@H]4CCOC4)c3)C2)cc1 [Example 9.43]	6.74
CO[C@@H](C)COc1cc(N2CC[C@@H](Oc3ccc([C@H](C)NC(C)=O)cc3)C2)ccn1 [Example 9.44]	6.19
CC(=O)N[C@@H](C)c1ccc(O[C@@H]2CCN(c3ccnc(O[C@@H]4CCC[C@@H]4O)c3)C2)cc1 [Example 9.45]	6.30
CCC(COC)Oc1cc(N2CC[C@@H](Oc3ccc([C@H](C)NC(C)=O)cc3)C2)ccn1 (some centres unmarked) [Example 9.46]	6.26
CC(=O)N[C@@H](C)c1ccc(O[C@@H]2CCN(c3ccnc(O[C@@H]4CCC[C@H]4O)c3)C2)cc1 [Example 9.47]	6.13
CC(=O)N[C@@H](C)c1ccc(O[C@@H]2CCN(c3ccnc(OCC4CCCO4)c3)C2)cc1 (some centres unmarked) [Example 9.48]	6.31
CC(=O)N[C@@H](C)c1ccc(O[C@@H]2CCN(c3ccnc(OCC4CCCO4)c3)C2)cc1 (some centres unmarked) [Example 9.49]	6.18
CC(=O)N[C@@H](C)c1ccc(O[C@@H]2CCN(c3ccnc(OCC(C)C)c3F)C2)cc1 [Example 9.50]	6.96
CC(=O)N[C@@H](C)c1ccc(O[C@@H]2CCN(c3ccnc(OCC4CC4)c3F)C2)cc1 [Example 9.51]	7.38
CC(=O)N[C@@H](C)c1ccc(O[C@@H]2CCN(c3ccnc(OCC(F)F)c3F)C2)cc1 [Example 9.52]	7.21
CCCOc1nccc(N2CC[C@@H](Oc3ccc([C@H](C)NC(C)=O)cc3)C2)c1F [Example 9.53]	7.40
CC(=O)N[C@@H](C)c1ccc(O[C@@H]2CCN(c3ccnc(OCC(F)F)c3C)C2)cc1 [Example 9.54]	6.94
CCCOc1nccc(N2CC[C@@H](Oc3ccc([C@H](C)NC(C)=O)cc3)C2)c1C [Example 9.55]	7.23
CC(=O)N[C@@H](C)c1ccc(O[C@@H]2CCN(c3cc(OCC(C)C)ncc3C#N)C2)cc1 [Example 9.56]	6.05
CC(=O)N[C@@H](C)c1ccc(O[C@@H]2CCN(c3ccnc(OCC4CC4)c3C)C2)cc1 [Example 9.57]	7.26
CC(=O)N[C@@H](C)c1ccc(O[C@@H]2CCN(c3ccnc(OCC(C)C)c3C)C2)cc1 [Example 9.58]	7.26
Cc1c(N2CC[C@@H](Oc3ccc([C@H](C)NC(=O)/C=C/C4CC4)cc3)C2)ccnc1OCC1CC1 [Example 9.59]	6.63
CC(=O)N[C@@H](C)c1ccc(O[C@@H]2CCN(c3ccnc(OCC4CC4(F)F)c3C)C2)cc1 (some centres unmarked) [Example 9.60]	7.40
CC(=O)N[C@@H](C)c1ccc(O[C@@H]2CCN(c3ccnc(OCC4CC(F)(F)C4)c3)C2)cc1 [Example 9.61]	7.19
CC(=O)N[C@@H](C)c1ccc(O[C@@H]2CCN(c3ccnc(OCC4CC4(F)F)c3F)C2)cc1 (some centres unmarked) [Example 9.62]	7.36
C[C@H](NC(=O)c1cncs1)c1ccc(O[C@@H]2CCN(c3ccnc(OCC4CC4)c3)C2)cc1 [Example 9.63]	7.26
CCCOc1cc(N2CC[C@@H](Oc3ccc([C@H](C)NC(=O)c4cncs4)cc3)C2)ccn1 [Example 9.64]	7.46
C[C@H](NC(=O)c1cncs1)c1ccc(O[C@@H]2CCN(c3ccnc(OC4CCOC4)c3)C2)cc1 (some centres unmarked) [Example 9.65]	7.07
